Columns and labels:
Assay in all cases: Bliss excess, mean over the matrix (fraction); higher = more synergy
[1] = system: KM-H2 (Hodgkin's Lymphoma)
Summary of the method: (§1)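 Cell lines grown in DMEM/F12 or RPMI with 10% FBS were plated in 1536-well plates and held 24 hours at 37°C, 5% CO2 before 72 hours of exposure to two-drug dose matrices, with DMSO typically at 0.2%. CellTiter-Glo 2.0 luminescence gave viability, which was converted to inhibition. Vehicle wells were set to 0 and blank wells to 1. Combination Emax is the second-highest inhibition in the matrix, and Bliss excess is the observed combination effect minus the expected EA + EB − EA·EB, where EA and EB are the single-agent effects.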

[2] = system: RH-1 (Ewing's Sarcoma)
Summary of the method: as §1

[3] = system: SUIT-2 (Pancreatic Carcinoma)
Summary of the method: as §1

[4] = system: SW756 (Cervical Carcinoma)
Summary of the method: as §1

[5] = system: SW780 (Bladder Carcinoma)
Summary of the method: as §1

[6] = system: TGBC24TKB (Biliary Tract Carcinoma)
Summary of the method: as §1

CS(=O)(=O)CCNCc1ccc(-c2ccc3ncnc(Nc4ccc(OCc5cccc(F)c5)c(Cl)c4)c3c2)o1 [Lapatinib] + NC1(c2ccc(-c3nc4ccn5c(=O)[nH]nc5c4cc3-c3ccccc3)cc2)CCC1 [MK-2206] (first compound max 10 µM, 7x7, partner max 10 µM)
Bliss excess [1]: 0.0116
Bliss excess [2]: -0.0202
Bliss excess [3]: -0.0219
Bliss excess [4]: -0.0506
Bliss excess [5]: -0.0054
Bliss excess [6]: 0.0667
